In paper PMC2362731, “Phase I study of Carzelesin (U-80,244) given (4-weekly) by intravenous bolus schedule” (British Journal of Cancer, 1999):

System: granulocytes (ANC), white blood cells (WBC), platelets
Test: Pharmacokinetic-pharmacodynamic relationship of bone marrow toxicity (%decr vs AUC)
Assay type: in vivo
Excerpt: Carzelesin (U-80,244, Figure 1A) is a cyclopropylpyrroloindole (CPI) prodrug analogue of CC-1065. […] CPI drugs are a class of compounds with unique DNA interactive properties. These agents fit into the minor groove region of DNA, and the CPI function in the molecule mediates a covalent binding to the N3 position of adenine in A-T rich regions, thus forming DNA adducts in a sequence selective fashion (Hurley et al, 1984; Reynolds et al, 1985). Three new CPIs have now been developed. […] Bizelesin differs from the classical CPI drugs in that it contains two chloromethyl functions, which are both converted (via intramolecular rearrangements) to the CPI alkyl- ating species that interact with DNA. Consequently, this agent is capable of forming DNA interstrand cross-links (Lee et al, 1991). […] Therefore, efforts were directed to modu- late the alkylation rate by the preparation of CPI prodrugs that would require chemical or enzymatic conversion. The activation of Carzelesin is a two-step reaction with hydrolysis of the phenyl- urethane substituent to form the intermediate compound U-76,073, followed by ring closure to form the active product U-76,074 (Figure 1B). […] This higher efficacy may be related to the pharmacologic features of the compound. […] Phase I study of Carzelesin (U-80,244) given (4-weekly) by intravenous bolus schedule A Awada1, CJA Punt2, MJ Piccart1, O Van Tellingen3, L Van Manen2, J Kerger1, Y Groot4, J Wanders4, J Verweij5 and DJTh Wagener2 1Institut Jules Bordet, Bd de Waterloo 125, 1000 Brussels, Belgium; 2University Hospital, Geert Grooteplein 8, Box 9101, 6500 HB Nijmegen, The Netherlands; 3The Netherlands Cancer Institute (Antoni van Leeuwenhoek Huis), Plesmanlaan 121, 1066 CX Amsterdam, The Netherlands; 4European Organization for Research and Treatment of Cancer - New Drug Development Office, PO Box 7057, Amsterdam, The Netherlands; 5Rotterdam Cancer Institute, Groene Hilledijk 301, 3075 EA Rotterdam, The Netherlands; on behalf of the EORTC Early Clinical Studies Group and EORTC NDDO Summary Carzelesin is a cyclopropylpyrroloindole analogue which acts as a DNA-sequence-specific alkylating agent. In this phase I study, Carzelesin was given as a 4-weekly 10 min IV infusion to 51 patients with advanced solid tumours. Patients received a median of two courses (range 1-5) at one of nine dose levels: […]. According to NCI-CTC criteria, non- haematological toxicities (grade 1/2) included fever, nausea and vomiting, mucositis and anorexia, none of which was clearly dose related. […] The concentration of U-76,074 (active metabolite) extended above the lower limit of quantitation (1 ng ml-1) for short periods of time and only at the higher dose levels. […]

## CCN(CC)c1ccc2cc(C(=O)Nc3ccc4[nH]c(C(=O)N5C[C@@H](CCl)c6c5cc(OC(=O)Nc5ccccc5)c5[nH]cc(C)c65)cc4c3)oc2c1 [Carzelesin]
human, in vivo
  AUC in other patients with marked toxicity: less than 20 ng ml.h-1
Patient at 300 with only very modest toxicity
  highest AUC observed in this series: 43.2 ng·mL/h
Second course, exception patient treated at 300
  %decr in ANC: 82%
